Bases are written 5' to 3'; sugars and linkages follow in the same order, as letters with counts (s phosphorothioate, o phosphodiester; PS: all linkages phosphorothioate). The collection does not say whether C is 5-methylated. l = locked nucleic acid (LNA); d = 2'-deoxy (DNA)

The data set is described as follows: rat primary cortical neurons, FLIPR, 25 uM ASO.
For “AAATCTATAATAACCACCAC (sugars l3 d14 l3, PS)”, the calcium oscillation score was 80.2 % of control.

“CAAACTTATATCTTTCAAAC (sugars l4 d12 l4, PS)”: the calcium oscillation score is 78.3 % of control.

Regarding “CAAATCATCCATCTATAAAC (sugars l4 d12 l4, PS)”, the calcium oscillation score is 88.8 % of control.

In the case of “CAACCAACAATACTTTAAAC (sugars l4 d12 l4, PS)”, the calcium oscillation score is 85.6 % of control.

As to “CACAACTATTAAATACCAAC (sugars l3 d14 l3, PS)”, the calcium oscillation score is 83.8 % of control.

As to “CACAATCTAACTATTAAC (sugars l3 d12 l3, PS)”, the calcium oscillation score was 76.5 % of control.

Take “CCAAATCTTATAATAACTAC (sugars ldlllddddddddddlldll, PS)”: the calcium oscillation score was 80.2 % of control.

As to “CTAAATCCTTAATATCAAAC (sugars l4 d12 l4, PS)”, the calcium oscillation score is 79.3 % of control.

Consider “CTAATATTATAACCATCAAC (sugars l3 d14 l3, PS)”, for which the calcium oscillation score was 82 % of control.

Turning to “TAACTAACTTAACTCAAC (sugars l3 d12 l3, PS)”, the calcium oscillation score was 74.7 % of control.

As for “TACCATACAATAACTTTAAC (sugars l3 d14 l3, PS)”, the calcium oscillation score is 76.5 % of control.

As for “TACTCAAATATAACACCAAC (sugars l3 d14 l3, PS)”, the calcium oscillation score is 85.6 % of control.

For the sequence “TCCACTAACCAATATAAC (sugars l3 d12 l3, PS)”, the calcium oscillation score is 76.5 % of control.

Values taken from the OligoGym collection.
